Values of other authors in publication PMC3384292 (Journal of the American Chemical Society, 2012).

Target: thrombin (Homo sapiens, UniProt P00734)

inhibition constant to thrombin: femtomolar
Substance: hirudin
